{
  "source": "paper PMC5697638",
  "about": "“Identification of a Potent Phosphoinositide 3‐Kinase Pan Inhibitor Displaying a Strategic Carboxylic Acid Group and Development of Its Prodrugs” (Chemmedchem, 2017)",
  "key": {"[1]": {"tested_on": "PC3 cells", "experiment": "PC3 cell proliferation (MTT)", "assay_type": "cell-based", "parameters": "key to Cell proliferation: active: Active: able to reduce proliferation to an extent greater than 50 %; inactive: able to reduce proliferation to an extent less than 50 %", "details": "PC3 cells, 10 μM of each prodrug", "procedure": "The biological activity of each prodrug was tested by analyzing their ability to decrease PC3 proliferation as a rapid test to evaluate the PI3Ks inhibitory activity after hydrolysis in a cell‐based assay. […] The choice of using such a cut‐off was due to the intent to identify rapidly which prodrug could be hydrolyzed in the assay to release the active compound. As expected, a good correlation between rate of hydrolysis and cellular activity was observed, and esters 64–68 and 70–73 were determined to be good candidates for topical use. We decided to focus our attention on ester 64, as its half‐life was a good compromise for a prodrug. The EC50 value of this ester was then evaluated on PC3 cells, and a value of (2.3±0.8) μM was obtained.\nCell proliferation: PC3 cell proliferation was measured with a 3‐(4,5‐dimethyl thiazol‐2‐yl)‐2,5‐diphenyltetrazolium bromide (MTT)‐based colorimetric assay (#11 465 007 001 Roche Diagnostic GmbH, Germany). PC3 cells were seeded in a 96‐well plate at a concentration of 10^4 cells mL^−1. PC3 cells were treated for 72 h with increasing concentrations of 64, and MTT was added. After ON solubilization of the MTT metabolite, formazan, the absorbance (λ=550–600 nm absorbance, with a reference wavelength of 650 nm) of each well was read in a multi‐well reader (Glomax multi detection system, Promega, model number 9301‐010). The percentage of proliferating cells was calculated by relating each absolute value to the control intended as PC3 cells treated with DMSO alone. An IC50 value was then derived by plotting all data on a dose–response curve (Graph Pad software) by using nonlinear regression fit (equation [log agonist] versus response)."}, "[2]": {"experiment": "metabolic stability in rat liver microsomes (RLM)", "assay_type": "in vitro ADME", "details": "RLM, 50 μM substrate, with NADPH; for Residual microsomal substrate (t=60 min): LC–UV", "procedure": "(§1) Twelve esters were prepared (see the Experimental Section for their synthesis and the Supporting Information for chromatographic methods) and evaluated in terms of metabolic stability. For this task, a combined approach based on microsomal and plasmatic stability assays was exploited considering the relevance of the plasmatic and hepatic tissues in esterase activity. Microsomal stability of the selected esters was evaluated by monitoring the disappearance of the substrate incubated in rat liver microsomes (RLM) at 50 μM concentration, in the presence of NADPH. In Table 4, the percentage of the remaining substrate, after incubation (t=60 min), with respect to the initial amount is reported. Overall, the compounds underwent a relevant metabolic transformation, and the substrate depletion ranged from 0 (for 76) to 100 % (for 70). This is mainly due to hydrolysis of the ester function, whereas the metabolites arising from the oxidation catalyzed by the NADPH‐dependent monooxygenase system were negligible from a quantitative point of view. Indeed, the main metabolite formed during the incubation of the esters was corresponding carboxyl derivative 37. […] Moreover, whereas CH2‐pyridin‐4‐yl ester 70 was completely metabolized, corresponding benzyl derivative 65 and piperonyl derivative 72 were more hydrolytically stable, and their residual substrates were 53 and 83 %, respectively. The hydrolytic stability of the selected esters was also evaluated by monitoring the depletion of the substrate incubated at a 50 μM concentration in mouse plasma over a period of 30 min. As expected, the plasmatic metabolic fate of the esters was characterized by the formation of 37 as the only metabolite (see Figure S4). The rate constant k [min^−1], derived for the substrate peak area versus time curve (single‐exponential decay equation—GraphPad Prism software, Inc., San Diego, CA (USA); see Figure S5) was used to calculate the in vitro half‐life t 1/2 [min], and the values are reported in Table 4.\nMetabolic stability of PI3K inhibitors in RLM fraction\nThe standard incubation mixture (500 µL final volume), in 1.5 mL Eppendorf tubes, was carried out in a 50 mM TRIS-HCl buffer (pH 7.4) containing 3.3 mM MgCl2, 1.3 mM NADPNa2, 3.3 mM glucose 6-phosphate, 0.4 Units/mL glucose 6-phosphate dehydrogenase (NADPH regenerating system), acetonitrile as cosolvent (1% of final volume) and 50 µM of substrate. After pre-equilibration of the mixture, an appropriate volume of rat microsomal suspension was added to give a final protein concentration of 1 mg/mL. The mixture was shaken for 1 hour at 37°C and the reaction was quenched by diluting the samples with 500 µL of ice-cold acetonitrile. The samples were then centrifuged at 13,000 rpm for 10 min, and the supernatant was directly injected onto the HPLC column for analysis. Control incubations were performed without microsomes. […]\n(§2) A Shimadzu HPLC system (Shimadzu, Kyoto, Japan), consisting of two LC-10AD Vp module pumps, an SLC-10A Vp system controller, an SIL-10AD Vp autosampler, and a DGU-14-A on-line degasser was used for the analysis. All the chromatographic separations were performed on a Phenomenex Luna C18 5µm (150 x 4.6 mm i.d.) (Phenomenex srl, Castel Bolognese, Italy) as a stationary phase protected by a Luna C18 SecurityGuard (Phenomenex srl). The SPD-M10Avp photodiode array detector was used to detect the analyte at 254 nm. LC Solution 1.24 software was used to process the chromatograms. Aliquots (20 µL) of supernatants obtained from incubations were injected onto the HPLC system and eluted with a mobile phase (flow rate: 1 mL/min) consisting of solvent A- 0.5% aqueous formic acid solution and solvent B- acetonitrile/methanol 80:20.\n(§3) The eluants were filtered through a 0.45-µm pore size polyvinylidene difluoride membrane […]\n(§4) The following gradients programs were used: […]"}, "[3]": {"experiment": "stability in mouse plasma", "assay_type": "in vitro ADME", "details": "50 μM substrate", "procedure": "as §1, with “4. […]” for “4.”\nStability of PI3K inhibitors in mouse plasma\nAn aliquot of 460 µL of blank plasma spiked with substrate (50 µM, final concentration, DMSO 5%) was incubated at 37 °C for 30 minutes. Aliquots (70 µL) of the incubation took at 0-2-5-10-20, and 30 minutes were diluted with 140 µL of acetonitrile, homogenized, and centrifuged at 13,000 rpm for five minutes. Supernatants (20 µL) were injected onto HPLC.\nas §2, §3, §4"}, "[4]": {"tested_on": "PI3Ks, all of the isoforms", "parameters": "method as in PMID 8106507", "details": "read-out: IC50 against all of the isoforms; cited from earlier work"}, "[5]": {"tested_on": "PI3Ks", "experiment": "PI3K inhibitory activity of copper salts", "assay_type": "biochemical", "details": "up to 10 μM", "procedure": "With this procedure in hand, we proceeded with our combinatorial strategy. The azides were selected to introduce both electron‐donating and electron‐withdrawing groups, hydrogen‐bond donors and acceptors, and ionizable functions. They were already present in our database or prepared according to standard procedures. […] Then, the 1,2,3‐triazoles were evaluated for their ability to inhibit PI3K isoforms of class I at a fixed concentration of 1 μM, as shown in Table 1. The synthesized 1,2,3‐triazoles along with their ability to inhibit PI3K isoforms at 1 μM concentration are reported. Possibly, a minute concentration of copper salts might have precipitated with the products and might have been retained in the purified compounds, and so, we also evaluated the PI3K inhibitory activity of these salts."}},
  "data": [
    {"smiles": "CCCCCCCCCCCOC(=O)c1cccc(Cn2cc(-c3cccc4c(=O)cc(N5CCOCC5)[nH]c34)nn2)c1", "note": "[Compound 75, Undecyl 3‐{[4‐(2‐morpholino‐4‐oxo‐1,4‐dihydroquinolin‐8‐yl)‐1H‐1,2,3‐triazol‐1‐yl]methyl}benzoate]", "values": [
      {"measurement": "Cell proliferation", "setting": "[1]", "result": "inactive"},
      {"measurement": "Residual microsomal substrate (t=60 min)", "setting": "[2]", "result": 80, "unit": "%"},
      {"measurement": "half-life at 50 µM", "setting": "[3]; mouse, mouse plasma, 30 min incubation, 37 °C, read-out: Mouse plasma t 1/2", "result": 4.4, "unit": "min"}
    ]},
    {"smiles": "CCCCCCCCCCCCCCCCCCOC(=O)c1cccc(Cn2cc(-c3cccc4c(=O)cc(N5CCOCC5)[nH]c34)nn2)c1", "note": "[Compound 76, Octadecyl 3‐{[4‐(2‐morpholino‐4‐oxo‐1,4‐dihydroquinolin‐8‐yl)‐1H‐1,2,3‐triazol‐1‐yl]methyl}benzoate]", "values": [
      {"measurement": "Cell proliferation", "setting": "[1]", "result": "inactive"},
      {"measurement": "substrate depletion", "setting": "[2]; 60 min", "result": 0, "unit": "%"},
      {"measurement": "Residual microsomal substrate (t=60 min)", "setting": "[2]", "result": 100, "unit": "%"},
      {"measurement": "hydrolysis by mouse plasma hydrolases", "setting": "[3]; 30 min", "result": "inert to the mouse plasma hydrolases"}
    ]},
    {"smiles": "O=c1cc(N2CCOCC2)oc2c(-c3ccccc3)cccc12", "note": "[LY294002]", "values": [
      {"measurement": "IC50", "setting": "[4]", "result": "~0.5", "unit": "µM"}
    ]},
    {"smiles": "[Cu+].[I-]", "note": "[copper(I) iodide]", "values": [
      {"measurement": "inhibition of PI3Ks", "setting": "[5]", "result": "Neither copper(II) acetate nor copper(I) iodide displayed significant inhibition of PI3Ks up to 10 μM"}
    ]},
    {"smiles": "CC(=O)[O-].CC(=O)[O-].[Cu+2]", "note": "[copper(II) acetate]", "values": [
      {"measurement": "inhibition of PI3Ks", "setting": "[5]", "result": "Neither copper(II) acetate nor copper(I) iodide displayed significant inhibition of PI3Ks up to 10 μM"}
    ]}
  ]
}
